# Source: PubChem BioAssay (NCI)
#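 Results reflect a 48-hour exposure of cells in 96-well plates to compound at five concentrations. TGI marks complete inhibition of growth.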
# Assays:
# Assay in all cases: NCI tumour cell line growth inhibition, 48 h
# RXF-631 renal = test system: RXF-631 renal
# RPMI-8226 leukemia = test system: RPMI-8226 leukemia
# U251 CNS = test system: U251 CNS
# KM12 colon = test system: KM12 colon
# SK-OV-3 ovarian = test system: SK-OV-3 ovarian
# MOLT-4 leukemia = test system: MOLT-4 leukemia
# EKVX NSCLC = test system: EKVX NSCLC
# SK-MEL-2 melanoma = test system: SK-MEL-2 melanoma
# OVCAR-3 ovarian = test system: OVCAR-3 ovarian
# SF-268 CNS = test system: SF-268 CNS
# OVCAR-4 ovarian = test system: OVCAR-4 ovarian
# LXFL 529 NSCLC = test system: LXFL 529 NSCLC
# NCI-H23 lung = test system: NCI-H23 lung
# NCI-H460 lung = test system: NCI-H460 lung
# UACC-257 melanoma = test system: UACC-257 melanoma
# SF-295 CNS = test system: SF-295 CNS
# K-562 leukemia = test system: K-562 leukemia
# HOP-18 NSCLC = test system: HOP-18 NSCLC
# 786-0 renal = test system: 786-0 renal
# OVCAR-8 ovarian = test system: OVCAR-8 ovarian
# OVCAR-5 ovarian = test system: OVCAR-5 ovarian
# DMS 273 small cell lung = test system: DMS 273 small cell lung
# CAKI-1 renal = test system: CAKI-1 renal
# A498 renal = test system: A498 renal
# HL-60(TB) leukemia = test system: HL-60(TB) leukemia
# HOP-92 NSCLC = test system: HOP-92 NSCLC
# HT29 colon = test system: HT29 colon
# SK-MEL-28 melanoma = test system: SK-MEL-28 melanoma
# UACC-62 melanoma = test system: UACC-62 melanoma
# COLO 205 colon = test system: COLO 205 colon
# SNB-75 CNS = test system: SNB-75 CNS
# SNB-19 CNS = test system: SNB-19 CNS
# SK-MEL-5 melanoma = test system: SK-MEL-5 melanoma
# SN12C renal = test system: SN12C renal
# LOX IMVI melanoma = test system: LOX IMVI melanoma
# HCT-15 colon = test system: HCT-15 colon
# NCI-H226 lung = test system: NCI-H226 lung
# M19-MEL melanoma = test system: M19-MEL melanoma
# KM20L2 colon = test system: KM20L2 colon
# NCI-H522 lung = test system: NCI-H522 lung
# IGROV1 ovarian = test system: IGROV1 ovarian
# MALME-3M melanoma = test system: MALME-3M melanoma
# ACHN renal = test system: ACHN renal
# A549 NSCLC = test system: A549 NSCLC
# TK-10 renal = test system: TK-10 renal
# SNB-78 CNS = test system: SNB-78 CNS
# UO-31 renal = test system: UO-31 renal
# HCC-2998 colon = test system: HCC-2998 colon
# HCT-116 colon = test system: HCT-116 colon
# DMS 114 small cell lung = test system: DMS 114 small cell lung
# CCRF-CEM leukemia = test system: CCRF-CEM leukemia
# SW-620 colon = test system: SW-620 colon
# M14 melanoma = test system: M14 melanoma
# RXF 393 renal = test system: RXF 393 renal
# XF 498 CNS = test system: XF 498 CNS
# SR leukemia = test system: SR leukemia
# DLD-1 colon = test system: DLD-1 colon
# SF-539 CNS = test system: SF-539 CNS
# PC-3 prostate = test system: PC-3 prostate
# HOP-62 NSCLC = test system: HOP-62 NSCLC
# MDA-N = test system: MDA-N
# DU-145 prostate = test system: DU-145 prostate
# HS 578T breast = test system: HS 578T breast
# NCI/ADR-RES ovarian = test system: NCI/ADR-RES ovarian
# MCF7 breast = test system: MCF7 breast
# BT-549 breast = test system: BT-549 breast
# MDA-MB-231 breast = test system: MDA-MB-231 breast
# MDA-MB-435 = test system: MDA-MB-435
smiles,measurement,setting,value
CCCCCCCCCCCCCCCCOC(=O)c1cc(O)cc(C(=O)OCCCCCCCCCCCCCCCC)c1,TGI,RXF-631 renal,> 100 µM
same,TGI,RPMI-8226 leukemia,> 100 µM
same,TGI,U251 CNS,> 100 µM
same,TGI,KM12 colon,> 100 µM
same,TGI,SK-OV-3 ovarian,> 100 µM
same,TGI,MOLT-4 leukemia,> 100 µM
same,TGI,EKVX NSCLC,> 100 µM
same,TGI,SK-MEL-2 melanoma,> 100 µM
same,TGI,OVCAR-3 ovarian,> 100 µM
same,TGI,SF-268 CNS,> 100 µM
same,TGI,OVCAR-4 ovarian,> 100 µM
same,TGI,LXFL 529 NSCLC,> 100 µM
same,TGI,NCI-H23 lung,> 100 µM
same,TGI,NCI-H460 lung,> 100 µM
same,TGI,UACC-257 melanoma,> 100 µM
same,TGI,SF-295 CNS,> 100 µM
same,TGI,K-562 leukemia,> 100 µM
same,TGI,HOP-18 NSCLC,> 100 µM
same,TGI,786-0 renal,> 100 µM
same,TGI,OVCAR-8 ovarian,> 100 µM
same,TGI,OVCAR-5 ovarian,> 100 µM
same,TGI,DMS 273 small cell lung,> 100 µM
same,TGI,CAKI-1 renal,> 100 µM
same,TGI,A498 renal,> 100 µM
same,TGI,HL-60(TB) leukemia,> 100 µM
same,TGI,HOP-92 NSCLC,> 100 µM
same,TGI,HT29 colon,> 100 µM
same,TGI,SK-MEL-28 melanoma,> 100 µM
same,TGI,UACC-62 melanoma,> 100 µM
same,TGI,COLO 205 colon,> 100 µM
same,TGI,SNB-75 CNS,> 100 µM
same,TGI,SNB-19 CNS,> 100 µM
same,TGI,SK-MEL-5 melanoma,> 100 µM
same,TGI,SN12C renal,> 100 µM
same,TGI,LOX IMVI melanoma,> 100 µM
same,TGI,HCT-15 colon,> 100 µM
same,TGI,NCI-H226 lung,> 100 µM
same,TGI,M19-MEL melanoma,> 100 µM
same,TGI,KM20L2 colon,> 100 µM
same,TGI,NCI-H522 lung,> 100 µM
same,TGI,IGROV1 ovarian,> 100 µM
same,TGI,MALME-3M melanoma,> 100 µM
same,TGI,ACHN renal,> 100 µM
same,TGI,A549 NSCLC,> 100 µM
same,TGI,TK-10 renal,> 100 µM
same,TGI,SNB-78 CNS,> 100 µM
same,TGI,UO-31 renal,> 100 µM
same,TGI,HCC-2998 colon,> 100 µM
same,TGI,HCT-116 colon,> 100 µM
same,TGI,DMS 114 small cell lung,> 100 µM
same,TGI,CCRF-CEM leukemia,> 100 µM
same,TGI,SW-620 colon,> 100 µM
same,TGI,M14 melanoma,> 100 µM
same,TGI,RXF 393 renal,> 100 µM
C/C(CC(=O)N(C(C)C)C(C)C)=N\NC(=O)c1ccncc1,TGI,RXF-631 renal,> 100 µM
same,TGI,RPMI-8226 leukemia,> 100 µM
same,TGI,XF 498 CNS,> 100 µM
same,TGI,U251 CNS,> 100 µM
same,TGI,SK-OV-3 ovarian,> 100 µM
same,TGI,MOLT-4 leukemia,> 100 µM
same,TGI,EKVX NSCLC,> 100 µM
same,TGI,OVCAR-3 ovarian,> 100 µM
same,TGI,SF-268 CNS,> 100 µM
same,TGI,OVCAR-4 ovarian,> 100 µM
same,TGI,LXFL 529 NSCLC,> 100 µM
same,TGI,NCI-H23 lung,> 100 µM
same,TGI,UACC-257 melanoma,> 100 µM
same,TGI,SF-295 CNS,> 100 µM
same,TGI,K-562 leukemia,> 100 µM
same,TGI,HOP-18 NSCLC,> 100 µM
same,TGI,786-0 renal,> 100 µM
same,TGI,OVCAR-8 ovarian,> 100 µM
same,TGI,DMS 273 small cell lung,> 100 µM
same,TGI,A498 renal,> 100 µM
same,TGI,HL-60(TB) leukemia,> 100 µM
same,TGI,HOP-92 NSCLC,> 100 µM
same,TGI,HT29 colon,> 100 µM
same,TGI,SK-MEL-28 melanoma,> 100 µM
same,TGI,UACC-62 melanoma,> 100 µM
same,TGI,SR leukemia,> 100 µM
same,TGI,COLO 205 colon,> 100 µM
same,TGI,SNB-75 CNS,> 100 µM
same,TGI,SNB-19 CNS,> 100 µM
same,TGI,SK-MEL-5 melanoma,> 100 µM
same,TGI,SN12C renal,> 100 µM
same,TGI,LOX IMVI melanoma,> 100 µM
same,TGI,HCT-15 colon,> 100 µM
same,TGI,NCI-H226 lung,> 100 µM
same,TGI,M19-MEL melanoma,> 100 µM
same,TGI,KM20L2 colon,> 100 µM
same,TGI,NCI-H522 lung,> 100 µM
same,TGI,IGROV1 ovarian,> 100 µM
same,TGI,MALME-3M melanoma,> 100 µM
same,TGI,DLD-1 colon,> 100 µM
same,TGI,ACHN renal,> 100 µM
same,TGI,A549 NSCLC,> 100 µM
same,TGI,SF-539 CNS,> 100 µM
same,TGI,SNB-78 CNS,> 100 µM
same,TGI,UO-31 renal,> 100 µM
same,TGI,HCC-2998 colon,> 100 µM
same,TGI,HCT-116 colon,> 100 µM
same,TGI,CCRF-CEM leukemia,> 100 µM
same,TGI,SW-620 colon,> 100 µM
same,TGI,M14 melanoma,> 100 µM
same,TGI,RXF 393 renal,> 100 µM
COc1ccc(CCc2cc(OC)c(OC)c(OC)c2)cc1,TGI,RXF-631 renal,4.45 µM
same,TGI,RPMI-8226 leukemia,17.1 µM
same,TGI,PC-3 prostate,> 62.6 µM
same,TGI,XF 498 CNS,20.6 µM
same,TGI,U251 CNS,2.73 µM
same,TGI,KM12 colon,5.77 µM
same,TGI,SK-OV-3 ovarian,> 32.2 µM
same,TGI,MOLT-4 leukemia,6.26 µM
same,TGI,EKVX NSCLC,70 µM
same,TGI,SK-MEL-2 melanoma,24.2 µM
same,TGI,OVCAR-3 ovarian,0.523 µM
same,TGI,HOP-62 NSCLC,14 µM
same,TGI,SF-268 CNS,19.6 µM
same,TGI,MDA-N,0.021 µM
same,TGI,OVCAR-4 ovarian,> 92.5 µM
same,TGI,LXFL 529 NSCLC,21 µM
same,TGI,NCI-H23 lung,26.9 µM
same,TGI,NCI-H460 lung,9.82 µM
same,TGI,UACC-257 melanoma,47.7 µM
same,TGI,SF-295 CNS,1.46 µM
same,TGI,K-562 leukemia,13.7 µM
same,TGI,HOP-18 NSCLC,> 100 µM
same,TGI,786-0 renal,69.1 µM
same,TGI,OVCAR-8 ovarian,32.2 µM
same,TGI,DU-145 prostate,5.62 µM
same,TGI,OVCAR-5 ovarian,> 100 µM
same,TGI,DMS 273 small cell lung,1.43 µM
same,TGI,CAKI-1 renal,20.4 µM
same,TGI,A498 renal,8.62 µM
same,TGI,HS 578T breast,> 100 µM
same,TGI,NCI/ADR-RES ovarian,> 100 µM
same,TGI,HL-60(TB) leukemia,0.296 µM
same,TGI,HOP-92 NSCLC,62.7 µM
same,TGI,HT29 colon,1.44 µM
same,TGI,SK-MEL-28 melanoma,> 61.3 µM
same,TGI,UACC-62 melanoma,> 100 µM
same,TGI,SR leukemia,0.78 µM
same,TGI,COLO 205 colon,0.189 µM
same,TGI,SNB-75 CNS,> 100 µM
same,TGI,SNB-19 CNS,> 100 µM
same,TGI,SK-MEL-5 melanoma,12 µM
same,TGI,SN12C renal,> 91.2 µM
same,TGI,LOX IMVI melanoma,39.5 µM
same,TGI,MCF7 breast,> 100 µM
same,TGI,HCT-15 colon,10.2 µM
same,TGI,NCI-H226 lung,7.46 µM
same,TGI,M19-MEL melanoma,> 100 µM
same,TGI,KM20L2 colon,0.049 µM
same,TGI,NCI-H522 lung,0.115 µM
same,TGI,IGROV1 ovarian,> 100 µM
same,TGI,MALME-3M melanoma,39.1 µM
same,TGI,DLD-1 colon,> 100 µM
same,TGI,ACHN renal,76.9 µM
same,TGI,A549 NSCLC,88.8 µM
same,TGI,TK-10 renal,> 97.9 µM
same,TGI,SF-539 CNS,0.146 µM
same,TGI,SNB-78 CNS,0.0976 µM
same,TGI,BT-549 breast,> 100 µM
same,TGI,UO-31 renal,83.2 µM
same,TGI,HCC-2998 colon,2.82 µM
same,TGI,HCT-116 colon,9.41 µM
same,TGI,MDA-MB-231 breast,15.7 µM
same,TGI,DMS 114 small cell lung,0.323 µM
same,TGI,MDA-MB-435,0.0345 µM
same,TGI,CCRF-CEM leukemia,12.4 µM
same,TGI,SW-620 colon,> 100 µM
same,TGI,M14 melanoma,16 µM
same,TGI,RXF 393 renal,0.057 µM
